Assay results published in patent US20260265329A1, “POLYPEPTIDE AND DERIVATIVE THEREOF, COMPOSITION, AND USE THEREOF” (HANGZHOU SCIWIND BIOSCIENCES CO., LTD., priority 2023, published 2026).
Starred links: 1 amine or outer side, 2 acyl side, 3 side chain; linkers in the order of their positions; H or OH if unused. Non-standard residues stand in square brackets, D forms with d. Residues, ends and D or L forms follow the SMILES beside them. *: point of attachment. C20 diacid = O=C(O)CCCCCCCCCCCCCCCCCCC(=O)*; C16 diacid = O=C(O)CCCCCCCCCCCCCCC(=O)*; γGlu = O=C(O)[C@H](CCC(=O)[*:2])N[*:1]; βAsp = O=C(O)[C@H](CC(=O)[*:2])N[*:1]; Hyp = O=C(O)[C@@H]1C[C@@H](O)CN1; Trx = NC[C@H]1CC[C@H](C(=O)O)CC1; AEEA = NCCOCCOCC(=O)O

Molecular target: T1, human amylin receptors (Homo sapiens, UniProt O60896+P30988)
T1 construct: host or cells: CHO-K1/Ga15/AMY3 cells, further stably transfected with a CRE-luciferase plasmid
T1 sequence (P30988 25-474): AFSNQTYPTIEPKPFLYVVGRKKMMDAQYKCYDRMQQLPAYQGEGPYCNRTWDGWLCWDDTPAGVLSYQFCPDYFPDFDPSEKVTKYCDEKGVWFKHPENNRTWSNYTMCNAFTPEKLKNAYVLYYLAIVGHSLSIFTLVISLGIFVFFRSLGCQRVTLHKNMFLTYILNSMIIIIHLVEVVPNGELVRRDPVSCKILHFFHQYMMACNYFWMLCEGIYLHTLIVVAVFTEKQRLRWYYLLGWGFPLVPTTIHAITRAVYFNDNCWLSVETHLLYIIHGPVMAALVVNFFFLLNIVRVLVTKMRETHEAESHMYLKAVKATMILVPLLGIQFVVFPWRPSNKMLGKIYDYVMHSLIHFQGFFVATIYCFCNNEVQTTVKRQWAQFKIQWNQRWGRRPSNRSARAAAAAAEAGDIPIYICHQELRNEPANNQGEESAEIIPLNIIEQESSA
T1 sequence (O60896 24-148 partner): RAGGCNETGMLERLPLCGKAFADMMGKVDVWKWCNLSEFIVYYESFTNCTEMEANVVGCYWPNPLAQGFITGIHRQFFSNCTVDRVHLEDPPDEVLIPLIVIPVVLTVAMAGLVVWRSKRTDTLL
Test: Luciferase assay in stably transfected amylin receptor/CRE-luc CHO cell line
Assay type: cell-based
Conditions: for Relative activity: EC50 ratio of Cagrilintide to the compound, Cagrilintide 100%; for EC50: amylin receptor/CRE-luc CHO cells, 24 hours incubation, luminescence

Relative activity [%]	EC50 [nM]	Compound
58	0.042	CC[C@H](C)[C@H](NC(=O)[C@H](CC(=O)O)NC(=O)[C@H](CCCNC(=N)N)NC(=O)[C@H](CC(=O)O)NC(=O)[C@H](CCCNC(=N)N)NC(=O)[C@H](CC(=O)O)NC(=O)[C@@H](NC(=O)[C@H](Cc1ccccc1)NC(=O)[C@H](Cc1c[nH]cn1)NC(=O)[C@H](CCCNC(=N)N)NC(=O)[C@H](CC(C)C)NC(=O)[C@H](Cc1ccccc1)NC(=O)[C@H](CC(=O)O)NC(=O)[C@H](C)NC(=O)[C@H](CC(C)C)NC(=O)[C@H](CCCNC(=N)N)NC(=O)[C@H](CCC(N)=O)NC(=O)[C@@H](NC(=O)[C@H](C)NC(=O)[C@H](C)NC(=O)[C@@H](NC(=O)[C@H](CO)NC(=O)[C@H](CC(C)C)NC(=O)[C@H](CCC(N)=O)NC(=O)[C@H](CO)NC(=O)[C@H](C)NC(=O)COCCOCCNC(=O)COCCOCCNC(=O)CC[C@H](NC(=O)CCCCCCCCCCCCCCCCCCC(=O)O)C(=O)O)[C@@H](C)O)[C@@H](C)O)[C@@H](C)O)C(=O)N[C@@H](CC(C)C)C(=O)N1CCC[C@H]1C(=O)N1CCC[C@H]1C(=O)N[C@H](C(=O)N[C@@H](CC(N)=O)C(=O)N[C@H](C(=O)NCC(=O)N[C@@H](CO)C(=O)N[C@@H](CC(N)=O)C(=O)N[C@H](C(=O)N1CCC[C@H]1C(N)=O)[C@@H](C)O)C(C)C)[C@@H](C)O [M16] ({C20 diacid-γGlu-AEEA-AEEA}-ASQLSTAATQRLADFLRHFTDRDRDILPPTNVGSNTP-NH2)
80	0.036	CC[C@H](C)[C@H](NC(=O)[C@H](CC(=O)O)NC(=O)[C@H](CCCNC(=N)N)NC(=O)[C@H](CC(=O)O)NC(=O)[C@H](CCCNC(=N)N)NC(=O)[C@H](CC(=O)O)NC(=O)[C@@H](NC(=O)[C@H](Cc1ccccc1)NC(=O)[C@H](Cc1c[nH]cn1)NC(=O)[C@H](CCCNC(=N)N)NC(=O)[C@H](CC(C)C)NC(=O)[C@H](Cc1ccccc1)NC(=O)[C@H](CC(=O)O)NC(=O)[C@H](C)NC(=O)[C@H](CC(C)C)NC(=O)[C@H](CCCNC(=N)N)NC(=O)[C@H](CCC(N)=O)NC(=O)[C@@H](NC(=O)[C@H](C)NC(=O)[C@H](C)NC(=O)[C@@H](NC(=O)[C@H](CO)NC(=O)[C@H](CC(C)C)NC(=O)[C@H](CCC(N)=O)NC(=O)[C@H](CO)NC(=O)[C@H](C)NC(=O)COCCOCCNC(=O)COCCOCCNC(=O)[C@H](CC(=O)O)NC(=O)CCCCCCCCCCCCCCCCCCC(=O)O)[C@@H](C)O)[C@@H](C)O)[C@@H](C)O)C(=O)N[C@@H](CC(C)C)C(=O)N1CCC[C@H]1C(=O)N1CCC[C@H]1C(=O)N[C@H](C(=O)N[C@@H](CC(N)=O)C(=O)N[C@H](C(=O)NCC(=O)N[C@@H](CO)C(=O)N[C@@H](CC(N)=O)C(=O)N[C@H](C(=O)N1CCC[C@H]1C(N)=O)[C@@H](C)O)C(C)C)[C@@H](C)O [M19] ({C20 diacid}-D[AEEA][AEEA]ASQLSTAATQRLADFLRHFTDRDRDILPPTNVGSNTP-NH2)
110	–	CC[C@H](C)[C@H](NC(=O)[C@H](CC(=O)O)NC(=O)[C@H](CCCNC(=N)N)NC(=O)[C@H](CC(=O)O)NC(=O)[C@H](CCCNC(=N)N)NC(=O)[C@H](CC(=O)O)NC(=O)[C@@H](NC(=O)[C@H](Cc1ccccc1)NC(=O)[C@H](Cc1c[nH]cn1)NC(=O)[C@H](CCCNC(=N)N)NC(=O)[C@H](CC(C)C)NC(=O)[C@H](Cc1ccccc1)NC(=O)[C@H](CC(=O)O)NC(=O)[C@H](C)NC(=O)[C@H](CC(C)C)NC(=O)[C@H](CCCNC(=N)N)NC(=O)[C@H](CCC(N)=O)NC(=O)[C@@H](NC(=O)[C@H](C)NC(=O)[C@H](C)NC(=O)[C@@H](NC(=O)[C@H](CO)NC(=O)[C@H](CC(C)C)NC(=O)[C@H](CCC(N)=O)NC(=O)[C@H](CO)NC(=O)[C@H](C)NC(=O)COCCOCCNC(=O)COCCOCCNC(=O)C[C@H](NC(=O)CCCCCCCCCCCCCCCCCCC(=O)O)C(=O)O)[C@@H](C)O)[C@@H](C)O)[C@@H](C)O)C(=O)N[C@@H](CC(C)C)C(=O)N1CCC[C@H]1C(=O)N1CCC[C@H]1C(=O)N[C@H](C(=O)N[C@@H](CC(N)=O)C(=O)N[C@H](C(=O)NCC(=O)N[C@@H](CO)C(=O)N[C@@H](CC(N)=O)C(=O)N[C@H](C(=O)N1CCC[C@H]1C(N)=O)[C@@H](C)O)C(C)C)[C@@H](C)O [M18] ({C20 diacid-βAsp-AEEA-AEEA}-ASQLSTAATQRLADFLRHFTDRDRDILPPTNVGSNTP-NH2)

Further lines, the compound ahead of its results:

Compound	Relative activity [%]	EC50 [nM]
CC[C@H](C)[C@H](NC(=O)[C@@H]1CCCN1C(=O)[C@H](CCCCN)NC(=O)[C@H](CC(C)C)NC(=O)[C@H](CC(N)=O)NC(=O)[C@H](CC(N)=O)NC(=O)[C@H](CO)NC(=O)[C@H](CO)NC(=O)[C@H](Cc1c[nH]cn1)NC(=O)[C@H](CCCNC(=N)N)NC(=O)[C@H](CC(C)C)NC(=O)[C@H](Cc1ccccc1)NC(=O)[C@H](CC(=O)O)NC(=O)[C@H](C)NC(=O)[C@H](CC(C)C)NC(=O)[C@H](CCCNC(=N)N)NC(=O)[C@H](CCC(N)=O)NC(=O)[C@@H](NC(=O)[C@H](C)NC(=O)[C@H](C)NC(=O)[C@@H](NC(=O)[C@H](CO)NC(=O)[C@H](CC(C)C)NC(=O)[C@H](CCC(N)=O)NC(=O)[C@H](CO)NC(=O)[C@H](C)NC(=O)[C@H]1CC[C@H](CNC(=O)CCCCCCCCCCCCCCCCCCC(=O)O)CC1)[C@@H](C)O)[C@@H](C)O)C(=O)N[C@@H](CC(C)C)C(=O)N1CCC[C@H]1C(=O)N1CCC[C@H]1C(=O)N[C@H](C(=O)N[C@@H](CC(N)=O)C(=O)N[C@H](C(=O)NCC(=O)N[C@@H](CO)C(=O)N[C@@H](CC(N)=O)C(=O)N[C@H](C(=O)N1C[C@H](O)C[C@H]1C(N)=O)[C@@H](C)O)C(C)C)[C@@H](C)O [M29] ({C20 diacid-Trx}-ASQLSTAATQRLADFLRHSSNNLKPILPPTNVGSNT[Hyp]-NH2)	412	–
CC[C@H](C)[C@H](NC(=O)[C@@H]1CCCN1C(=O)[C@H](CCCCN)NC(=O)[C@H](CC(C)C)NC(=O)[C@H](CC(N)=O)NC(=O)[C@H](CC(N)=O)NC(=O)[C@H](CO)NC(=O)[C@H](CO)NC(=O)[C@H](Cc1c[nH]cn1)NC(=O)[C@H](CCCNC(=N)N)NC(=O)[C@H](CC(C)C)NC(=O)[C@H](Cc1ccccc1)NC(=O)[C@H](CC(=O)O)NC(=O)[C@H](C)NC(=O)[C@H](CC(C)C)NC(=O)[C@H](CCCNC(=N)N)NC(=O)[C@H](CCC(N)=O)NC(=O)[C@@H](NC(=O)[C@H](C)NC(=O)[C@H](C)NC(=O)[C@@H](NC(=O)[C@H](CO)NC(=O)[C@H](CC(C)C)NC(=O)[C@H](CCC(N)=O)NC(=O)[C@H](CO)NC(=O)[C@H](C)NC(=O)COCCOCCNC(=O)COCCOCCNC(=O)[C@H]1CC[C@H](CNC(=O)CCCCCCCCCCCCCCCCCCC(=O)O)CC1)[C@@H](C)O)[C@@H](C)O)C(=O)N[C@@H](CC(C)C)C(=O)N1CCC[C@H]1C(=O)N1CCC[C@H]1C(=O)N[C@H](C(=O)N[C@@H](CC(N)=O)C(=O)N[C@H](C(=O)NCC(=O)N[C@@H](CO)C(=O)N[C@@H](CC(N)=O)C(=O)N[C@H](C(=O)N1C[C@H](O)C[C@H]1C(N)=O)[C@@H](C)O)C(C)C)[C@@H](C)O [M35] ({C20 diacid-Trx-AEEA-AEEA}-ASQLSTAATQRLADFLRHSSNNLKPILPPTNVGSNT[Hyp]-NH2)	124	–
CC[C@H](C)[C@H](NC(=O)[C@H](CC(=O)O)NC(=O)[C@H](CCCNC(=N)N)NC(=O)[C@H](CC(=O)O)NC(=O)[C@H](CCCNC(=N)N)NC(=O)[C@H](CC(=O)O)NC(=O)[C@@H](NC(=O)[C@H](Cc1ccccc1)NC(=O)[C@H](Cc1c[nH]cn1)NC(=O)[C@H](CCCNC(=N)N)NC(=O)[C@H](CC(C)C)NC(=O)[C@H](Cc1ccccc1)NC(=O)[C@H](CC(=O)O)NC(=O)[C@H](C)NC(=O)[C@H](CC(C)C)NC(=O)[C@H](CCCNC(=N)N)NC(=O)[C@H](CCC(N)=O)NC(=O)[C@@H](NC(=O)[C@H](C)NC(=O)[C@H](C)NC(=O)[C@@H](NC(=O)[C@H](CO)NC(=O)[C@H](CC(C)C)NC(=O)[C@H](CCC(N)=O)NC(=O)[C@H](CO)NC(=O)[C@H](C)NC(=O)[C@H](CCC(=O)O)NC(=O)CCCCCCCCCCCCCCCCCCC(=O)O)[C@@H](C)O)[C@@H](C)O)[C@@H](C)O)C(=O)N[C@@H](CC(C)C)C(=O)N1CCC[C@H]1C(=O)N1CCC[C@H]1C(=O)N[C@H](C(=O)N[C@@H](CC(N)=O)C(=O)N[C@H](C(=O)NCC(=O)N[C@@H](CO)C(=O)N[C@@H](CC(N)=O)C(=O)N[C@H](C(=O)N1CCC[C@H]1C(N)=O)[C@@H](C)O)C(C)C)[C@@H](C)O [M11] ({C20 diacid}-EASQLSTAATQRLADFLRHFTDRDRDILPPTNVGSNTP-NH2)	110	0.004
CC[C@H](C)[C@H](NC(=O)[C@H](CC(=O)O)NC(=O)[C@H](CCCNC(=N)N)NC(=O)[C@H](CC(=O)O)NC(=O)[C@H](CCCNC(=N)N)NC(=O)[C@H](CC(=O)O)NC(=O)[C@@H](NC(=O)[C@H](Cc1ccccc1)NC(=O)[C@H](Cc1c[nH]cn1)NC(=O)[C@H](CCCNC(=N)N)NC(=O)[C@H](CC(C)C)NC(=O)[C@H](Cc1ccccc1)NC(=O)[C@H](CC(=O)O)NC(=O)[C@H](C)NC(=O)[C@H](CC(C)C)NC(=O)[C@H](CCCNC(=N)N)NC(=O)[C@H](CCC(N)=O)NC(=O)[C@@H](NC(=O)[C@H](C)NC(=O)[C@H](C)NC(=O)[C@@H](NC(=O)[C@H](CO)NC(=O)[C@H](CC(C)C)NC(=O)[C@H](CCC(N)=O)NC(=O)[C@H](CO)NC(=O)[C@H](C)NC(=O)CC[C@H](NC(=O)CCCCCCCCCCCCCCC(=O)O)C(=O)O)[C@@H](C)O)[C@@H](C)O)[C@@H](C)O)C(=O)N[C@@H](CC(C)C)C(=O)N1CCC[C@H]1C(=O)N1CCC[C@H]1C(=O)N[C@H](C(=O)N[C@@H](CC(N)=O)C(=O)N[C@H](C(=O)NCC(=O)N[C@@H](CO)C(=O)N[C@@H](CC(N)=O)C(=O)N[C@H](C(=O)N1CCC[C@H]1C(N)=O)[C@@H](C)O)C(C)C)[C@@H](C)O [M23] ({C16 diacid-γGlu}-ASQLSTAATQRLADFLRHFTDRDRDILPPTNVGSNTP-NH2)	182	0.017
